Data on twelve molecules can be found in US12686665B2, “Bicyclic fused ring derivative or salt thereof and pharmaceutical composition comprising same” (YUHAN CORPORATION, priority 2021, dated 2026).

Structures can show the parent of a compound that is named as a salt.

Assay [1] deals with T1, recombinant human Lysyl Oxidase-Like 2 (LOXL2) (Homo sapiens, UniProt Q9Y4K0).
T1 construct: purchased R&D systems
T1 sequence (Q9Y4K0 26-774): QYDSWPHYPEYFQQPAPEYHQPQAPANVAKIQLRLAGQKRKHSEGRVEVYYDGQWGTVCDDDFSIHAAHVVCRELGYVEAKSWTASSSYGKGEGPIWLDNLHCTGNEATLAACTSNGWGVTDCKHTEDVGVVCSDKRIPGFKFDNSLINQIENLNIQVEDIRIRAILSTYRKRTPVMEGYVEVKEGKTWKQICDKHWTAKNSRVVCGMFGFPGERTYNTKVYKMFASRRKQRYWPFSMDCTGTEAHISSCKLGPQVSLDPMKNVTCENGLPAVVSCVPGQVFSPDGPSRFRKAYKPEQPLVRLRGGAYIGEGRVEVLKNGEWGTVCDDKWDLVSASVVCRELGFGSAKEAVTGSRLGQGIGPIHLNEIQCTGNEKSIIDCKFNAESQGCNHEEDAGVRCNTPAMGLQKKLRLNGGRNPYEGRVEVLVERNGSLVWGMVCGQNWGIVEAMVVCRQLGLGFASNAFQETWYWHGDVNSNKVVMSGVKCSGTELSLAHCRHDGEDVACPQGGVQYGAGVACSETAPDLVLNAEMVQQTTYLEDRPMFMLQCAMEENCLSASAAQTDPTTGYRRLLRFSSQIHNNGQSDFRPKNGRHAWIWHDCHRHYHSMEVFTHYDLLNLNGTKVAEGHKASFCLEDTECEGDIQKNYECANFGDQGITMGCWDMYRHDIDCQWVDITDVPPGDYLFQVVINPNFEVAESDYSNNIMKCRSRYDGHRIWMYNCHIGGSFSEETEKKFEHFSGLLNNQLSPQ
The assay is described as follows: Amplex Red HRP-coupled amine oxidase assay, recombinant human LOXL2. The class given is biochemical. The conditions noted are these: 60 min incubation with enzyme at 37° C., putrescine substrate, read-out: Inhibitory activity (IC50, nM) human LOXL2. The gist of the method:
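Putrescine substrate (30 mM) in 50 mM sodium phosphate pH 7.4, 37 °C; compounds preincubated 60 min with enzyme, 1% DMSO final, six-point curves. H2O2 detected via 400 μM Amplex Red/2 U/mL HRP, fluorescence (ex 530/em 590 nm) after 1 h; IC50 from four-parameter logistic fit of % signal reduction.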

Assay [2] deals with T2, recombinant human MAO-A (monoamine oxidase-A) (Homo sapiens, UniProt P21397).
T2 construct: purchased Sigma-Aldrich
T2 sequence (P21397 1-527): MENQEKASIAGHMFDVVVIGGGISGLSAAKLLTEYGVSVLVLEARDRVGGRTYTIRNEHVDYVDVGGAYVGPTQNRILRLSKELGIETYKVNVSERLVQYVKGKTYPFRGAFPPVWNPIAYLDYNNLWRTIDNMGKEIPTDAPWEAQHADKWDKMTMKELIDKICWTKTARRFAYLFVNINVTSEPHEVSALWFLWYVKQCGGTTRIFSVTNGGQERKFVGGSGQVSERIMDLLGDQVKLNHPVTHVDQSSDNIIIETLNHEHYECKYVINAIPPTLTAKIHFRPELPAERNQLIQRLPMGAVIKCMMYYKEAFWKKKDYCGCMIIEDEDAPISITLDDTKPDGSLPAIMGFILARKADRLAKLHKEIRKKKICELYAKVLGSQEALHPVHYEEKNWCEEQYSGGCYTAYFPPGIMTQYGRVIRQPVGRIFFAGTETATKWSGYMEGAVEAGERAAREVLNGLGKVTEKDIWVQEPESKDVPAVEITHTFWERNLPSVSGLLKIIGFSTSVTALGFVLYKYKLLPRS
Put plainly: Amplex Red HRP-coupled amine oxidase assay, recombinant human MAO-A. The class given is biochemical. The settings on record: 0.5 mM tyramine substrate, read-out: Inhibitory activity (IC50, nM) MAO-A. The gist of the method: (§1)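 Enzyme preincubated 60 min at 37 °C with compound (six-point curve, 1% DMSO final) in 50 mM sodium phosphate pH 7.4, then Amplex Red 400 μM and HRP 2 U/mL added with substrate: MAO-A 0.5 mM tyramine, MAO-B 1 mM benzylamine, DAO 1 mM putrescine. Resorufin fluorescence read after 1 h; IC50 by four-parameter logistic fit.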

The target of assay [3] is T3, recombinant human MAO-B (monoamine oxidase-B) (Homo sapiens, UniProt P27338).
T3 construct: purchased Sigma-Aldrich
T3 sequence (P27338 1-520): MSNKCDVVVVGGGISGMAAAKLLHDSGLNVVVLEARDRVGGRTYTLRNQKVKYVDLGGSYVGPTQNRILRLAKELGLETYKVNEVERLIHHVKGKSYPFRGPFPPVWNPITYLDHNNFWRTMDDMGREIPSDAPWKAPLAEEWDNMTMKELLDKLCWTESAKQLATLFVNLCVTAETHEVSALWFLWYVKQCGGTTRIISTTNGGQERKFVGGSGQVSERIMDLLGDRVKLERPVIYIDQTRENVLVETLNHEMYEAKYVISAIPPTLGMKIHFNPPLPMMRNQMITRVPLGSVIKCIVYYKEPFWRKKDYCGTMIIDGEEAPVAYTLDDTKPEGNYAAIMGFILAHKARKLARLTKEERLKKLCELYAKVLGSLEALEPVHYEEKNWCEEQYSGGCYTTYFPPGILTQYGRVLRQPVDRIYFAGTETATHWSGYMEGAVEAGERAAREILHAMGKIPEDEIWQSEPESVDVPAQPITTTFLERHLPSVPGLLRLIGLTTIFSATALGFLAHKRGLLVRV
The assay is described as follows: Amplex Red HRP-coupled amine oxidase assay, recombinant human MAO-B. It is filed as biochemical. The conditions noted are these: 1 mM benzylamine substrate, read-out: Inhibitory activity (IC50, nM) MAO-B. The gist of the method: as §1

In assay [4] the target is T4, recombinant human DAO (diamine oxidase) (Homo sapiens, UniProt P19801).
T4 construct: purchased R&D systems
T4 sequence (P19801 20-751): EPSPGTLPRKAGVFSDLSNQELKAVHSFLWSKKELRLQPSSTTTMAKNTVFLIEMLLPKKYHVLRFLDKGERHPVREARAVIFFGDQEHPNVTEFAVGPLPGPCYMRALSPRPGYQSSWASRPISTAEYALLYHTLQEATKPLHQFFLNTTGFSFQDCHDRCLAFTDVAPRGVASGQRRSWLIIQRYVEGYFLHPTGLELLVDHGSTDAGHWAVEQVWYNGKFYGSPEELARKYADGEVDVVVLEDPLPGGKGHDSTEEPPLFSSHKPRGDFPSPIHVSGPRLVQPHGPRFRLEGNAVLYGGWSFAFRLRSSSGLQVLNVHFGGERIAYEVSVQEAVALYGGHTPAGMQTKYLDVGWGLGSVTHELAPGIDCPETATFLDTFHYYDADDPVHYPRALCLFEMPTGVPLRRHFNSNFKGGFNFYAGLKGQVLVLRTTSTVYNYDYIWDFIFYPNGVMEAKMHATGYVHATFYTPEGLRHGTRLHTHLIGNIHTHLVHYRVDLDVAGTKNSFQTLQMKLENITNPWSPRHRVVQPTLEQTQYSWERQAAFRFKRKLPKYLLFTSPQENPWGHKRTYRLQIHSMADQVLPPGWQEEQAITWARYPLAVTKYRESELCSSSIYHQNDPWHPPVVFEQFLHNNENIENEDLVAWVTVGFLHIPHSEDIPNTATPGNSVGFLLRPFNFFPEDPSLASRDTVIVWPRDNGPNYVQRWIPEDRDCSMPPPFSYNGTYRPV
Put plainly: Amplex Red HRP-coupled amine oxidase assay, recombinant human DAO. It is filed as biochemical. The settings on record: 1 mM putrescine substrate, read-out: Inhibitory activity (IC50, nM) DAO. The gist of the method:
as §1

Assay [5] concerns mouse bleomycin-mediated lung injury model. The settings on record: cited from earlier work.

Turning to `Cc1nc2c(-c3cccc(S(=O)(=O)N(C)C)c3)cc(C(=O)N(C)C)cc2n1C/C(F)=C/CN` [Example 76, (Z)-1-(4-amino-2-fluorobut-2-en-1-yl)-4-(3-(N,N-dimethylsulfamoyl)phenyl)-N,N,2-trimethyl-1H-benzo[d]imidazol-6-carboxamide hydrochloride], the IC50 (as a rule, the point on the concentration scale where inhibition reaches its midpoint) in assay [1] was 58 nM; in assay [2], 12400 nM; in assay [3], more than 100000 nM; in assay [4] it was 24600 nM.

`CNS(=O)(=O)c1ccc(OC)c(-c2cc(C(=O)OC)cc3c2ncn3C/C(F)=C/CN)c1` [Example 24, methyl (Z)-1-(4-amino-2-fluorobut-2-en-1-yl)-4-(2-methoxy-5-(N-methylsulfamoyl)phenyl)-1H-benzo[d]imidazol-6-carboxylate hydrochloride]: the IC50 in assay [1] is 15.9 nM; in assay [2], more than 100000 nM; in assay [3] it was more than 100000 nM; in assay [4] it was 21800 nM.

Regarding `COC(=O)c1cc(-c2cccc(S(=O)(=O)N(C)C)c2)c2ncn(C/C(F)=C/CN)c2c1` [Example 31, methyl (Z)-1-(4-amino-2-fluorobut-2-en-1-yl)-4-(3-(N,N-dimethysulfamoyl)phenyl)-1H-benzo[d]imidazol-6-carboxylate hydrochloride], the IC50 was 19.4 nM in assay [1], 24600 nM in assay [2], more than 100000 nM in assay [3] and 139 nM in assay [4].

Turning to `CN(C)S(=O)(=O)c1cccc(-c2cccc3c2nnn3C/C(F)=C/CN)c1` [Example 112, (Z)-3-(1-(4-amino-2-fluorobut-2-en-1-yl)-1H-benzo[d][1,2,3]triazol-4-yl)-N,N-dimethylbenzenesulfonamide hydrochloride], the IC50 was 15 nM in assay [1], more than 100000 nM in assay [2], 26500 nM in assay [3] and 32100 nM in assay [4].

`NCc1cc(Oc2cccc(C(=O)N3C[C@@H](O)[C@H](F)C3)c2)nc(C(F)(F)F)c1` [PAT-1251]: the fibrosis entry in assay [5] was “significantly reduced fibrosis”.

Regarding `CNS(=O)(=O)c1cccc(-c2cc(C(=O)OC)cc3c2ncn3C/C(F)=C/CN)c1` [Example 30, methyl (Z)-1-(4-amino-2-fluorobut-2-en-1-yl)-4-(3-(N-methylsulfamoyl)phenyl)-1H-benzo[d]imidazol-6-carboxylate hydrochloride], the IC50 was 29.7 nM in assay [1], more than 100000 nM in assay [2], more than 100000 nM in assay [3] and 3460 nM in assay [4].

`NC/C=C(\F)Cn1nnc2c(-c3cccc(S(=O)(=O)N4CCC(F)(F)C4)c3)cccc21` [Example 103, (Z)-4-(4-(3-((3,3-difluoropyrrolidin-1-yl)sulfonyl)phenyl)-1H-benzo[d][1,2,3]triazol-1-yl)-3-fluorobut-2-en-1-amine hydrochloride]: the IC50 was found to be 25 nM in assay [1], 9060 nM in assay [2], 23500 nM in assay [3] and 27900 nM in assay [4].

As for `NC/C=C(\F)Cn1cnc2c(-c3cncnc3)cc(C(F)(F)F)cc21` [Example 175, (Z)-3-fluoro-4-(4-(pyrimidin-5-yl)-6-(trifluoromethyl)-1H-benzo[d]imidazol-1-yl)but-2-en-1-amine hydrochloride], the 50% inhibitory concentration (IC50) was 259 nM in assay [1], more than 100000 nM in assay [2], more than 100000 nM in assay [3] and 2580 nM in assay [4].

In the case of `COC(=O)c1cc(-c2cc(S(=O)(=O)C(F)(F)F)ccc2C)c2ncn(C/C(F)=C/CN)c2c1` [Example 35, methyl (Z)-1-(4-amino-2-fluorobut-2-en-1-yl)-4-(2-methyl-5-((trifluoromethyl)sulfonyl)phenyl)-1H-benzo[d]imidazol-6-carboxylate hydrochloride], the IC50 was 67.6 nM in assay [1], more than 100000 nM in assay [2], more than 100000 nM in assay [3] and 47700 nM in assay [4].

Turning to `COC(=O)c1cc(-c2cccc(S(=O)(=O)NC3CC3)c2)c2ncn(C/C(F)=C/CN)c2c1` [Example 29, methyl (Z)-1-(4-amino-2-fluorobut-2-en-1-yl)-4-(3-(N-cyclopropylsulfamoyl)phenyl)-1H-benzo[d]imidazol-6-carboxylate hydrochloride], the IC50 in assay [1] was 34.9 nM; in assay [2], more than 100000 nM; in assay [3], more than 100000 nM; in assay [4] it was 1370 nM.

On to `COC(=O)c1cc(-c2cccc(S(C)(=O)=O)c2)c2nc(C)n(C/C(F)=C/CN)c2c1` [Example 67, methyl (Z)-1-(4-amino-2-fluorobut-2-en-1-yl)-2-methyl-4-(3-(methylsulfonyl)phenyl)-1H-benzo[d]imidazol-6-carboxylate hydrochloride], for which the IC50 in assay [1] is 83 nM; in assay [2] it was more than 100000 nM; in assay [3], more than 100000 nM; in assay [4], 646 nM.

With `CNS(=O)(=O)c1cccc(-c2cc(C(F)(F)F)cc3c2ncn3C/C(F)=C/CN)c1` [Example 20, (Z)-3-(1-(4-amino-2-fluorobut-2-en-1-yl)-6-(trifluoromethyl)-1H-benzo[d]imidazol-4-yl)-N-methylbenzenesulfonamide hydrochloride], the IC50 in assay [1] was 77 nM; in assay [2] it was more than 100000 nM; in assay [3], more than 100000 nM; in assay [4], more than 100000 nM.
